From ChEMBL document CHEMBL2321823, “Synthesis of novel analogs of cabergoline: improving cardiovascular safety by removing 5-HT2B receptor agonism” (ACS Med Chem Lett, 2013)

Experiments:
5-HT2B receptor [1] = target: T1, 5-HT2B receptor (Homo sapiens, UniProt P41595); experiment: (§1) Agonist activity at human 5-HT2B receptor transfected in CHO cell assessed as IP1 production incubated for 30 mins measured by HTRF detection method; assay type: cell-based; conditions: human, CHO cells transfected with human 5-HT2B receptor
[2] = target: T2, 5-hydroxytryptamine receptor 2B (Homo sapiens, UniProt P41595); experiment: as §1; assay type: cell-based; conditions: for Activity: human, cho, 0.5 h
[3] = target: T2, 5-hydroxytryptamine receptor 2B; experiment: Displacement of [125I](+/-)DOI from human 5-HT2B receptor transfected in CHO cell membrane after 60 mins by scintillation counting analysis; assay type: cell membranes
[4] = target: 5-hydroxytryptamine receptor 2A (Homo sapiens, UniProt P28223); experiment: Antagonist activity at human 5-HT2A receptor assessed as decrease in agonist-induced intracellular calcium mobilization preincubated for 10 mins prior to agonist addition measured by FLIPR analysis; assay type: functional, cell-based
[5] = target: D(2) dopamine receptor (Homo sapiens) (UniProt P14416); experiment: Partial agonist activity at human D2 receptor transfected in HTLA cells measured after overnight incubation by luminescence counter analysis; assay type: cell-based
[6] = target: T2, 5-hydroxytryptamine receptor 2B; experiment: (§2) Partial agonist activity at human 5-HT2B receptor expressed in HEK293 cells assessed as intracellular calcium mobilization by FLIPR analysis; assay type: cell-based; conditions: hek293
[7] = target: T2, 5-hydroxytryptamine receptor 2B; experiment: Antagonist activity at human 5-HT2B receptor transfected in CHO cell assessed as decrease in 5-HT-induced IP1 production preincubated for 5 mins before 5-HT addition measured after 30 mins by HTRF detection method; assay type: functional, cell-based
5-HT2B receptor [8] = target: T1, 5-HT2B receptor; experiment: as §2; assay type: cell-based; conditions: HEK293 cells expressing human 5-HT2B receptor

T2 sequence (P41595 whole entry): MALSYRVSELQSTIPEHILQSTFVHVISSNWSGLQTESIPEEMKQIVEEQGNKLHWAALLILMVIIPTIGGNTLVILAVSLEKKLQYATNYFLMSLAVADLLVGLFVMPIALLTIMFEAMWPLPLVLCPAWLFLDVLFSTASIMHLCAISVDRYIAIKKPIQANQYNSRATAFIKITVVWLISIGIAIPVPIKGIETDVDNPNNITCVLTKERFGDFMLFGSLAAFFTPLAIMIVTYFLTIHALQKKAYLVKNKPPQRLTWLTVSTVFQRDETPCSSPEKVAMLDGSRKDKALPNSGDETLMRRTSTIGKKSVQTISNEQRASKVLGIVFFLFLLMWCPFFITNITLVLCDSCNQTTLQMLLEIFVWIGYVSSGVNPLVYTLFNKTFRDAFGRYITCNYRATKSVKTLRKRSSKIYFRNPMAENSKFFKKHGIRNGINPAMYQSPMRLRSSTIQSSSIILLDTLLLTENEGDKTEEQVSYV
T1 sequence (P41595 whole entry): as above
Chain of D(2) dopamine receptor (Homo sapiens) (P14416 whole entry): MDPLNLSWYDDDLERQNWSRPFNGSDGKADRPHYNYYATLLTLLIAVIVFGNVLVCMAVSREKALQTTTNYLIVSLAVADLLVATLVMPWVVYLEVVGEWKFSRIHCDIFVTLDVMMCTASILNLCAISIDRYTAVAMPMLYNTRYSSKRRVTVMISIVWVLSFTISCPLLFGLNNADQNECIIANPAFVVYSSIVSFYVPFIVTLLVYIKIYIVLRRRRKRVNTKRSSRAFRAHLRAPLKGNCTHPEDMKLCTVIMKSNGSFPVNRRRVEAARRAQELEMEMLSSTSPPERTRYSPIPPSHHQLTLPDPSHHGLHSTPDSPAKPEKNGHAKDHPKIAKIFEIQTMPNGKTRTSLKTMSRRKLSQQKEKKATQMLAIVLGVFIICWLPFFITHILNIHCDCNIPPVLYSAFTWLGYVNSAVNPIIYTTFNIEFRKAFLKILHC
Chain of 5-hydroxytryptamine receptor 2A (P28223 whole entry): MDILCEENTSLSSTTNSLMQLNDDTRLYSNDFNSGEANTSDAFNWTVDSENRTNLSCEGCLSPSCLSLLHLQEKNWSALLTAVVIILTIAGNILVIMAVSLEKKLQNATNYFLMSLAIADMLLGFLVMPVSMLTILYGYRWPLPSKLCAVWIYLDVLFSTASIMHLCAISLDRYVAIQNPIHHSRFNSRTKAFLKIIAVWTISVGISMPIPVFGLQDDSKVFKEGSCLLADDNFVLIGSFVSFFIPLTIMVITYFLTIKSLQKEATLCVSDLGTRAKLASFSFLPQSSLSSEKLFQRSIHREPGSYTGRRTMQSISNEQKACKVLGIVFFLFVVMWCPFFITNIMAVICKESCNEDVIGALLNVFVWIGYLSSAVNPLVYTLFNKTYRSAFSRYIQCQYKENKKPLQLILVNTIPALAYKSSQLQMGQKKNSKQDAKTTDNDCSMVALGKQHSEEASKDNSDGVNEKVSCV

SMILES: C=CCN1C[C@H](C(=O)N(CCCN2CCOCC2)C(=O)NCC)C[C@@H]2c3cccc4[nH]cc(c34)C[C@H]21
- Emax at 0.5 h (5-HT2B receptor [1]): 106%
- EC50 [2]: 13 nM
- Ki [3]: 7.1 nM

SMILES: CCNC(=O)N(CCCN(C)C)C(=O)[C@@H]1C[C@@H]2c3cccc4c3c(cn4C)C[C@H]2N(C)C1
- IC50 [4]: 11500 nM
- Emax [5]: 50%
- Activity [6]: Not Active
- IC50 [7]: 22 nM
- Kb [7]: 5.6 nM
- Activity [2]: Not Active
- Ki [3]: 1 nM

SMILES: COC(OC)[C@@H]1C[C@@H]2c3cccc4c3c(cn4C)C[C@H]2N(C)C1
- Activity [6]: Not Active
- IC50 [7]: 13 nM
- Kb [7]: 3.3 nM
- Activity [2]: Not Active
- Ki [3]: 0.54 nM

SMILES: CN(C)CCCNC(=O)[C@@H]1C[C@@H]2c3cccc4c3c(cn4C)C[C@H]2N(C)C1
- Emax (5-HT2B receptor [8]): < 12%
- IC50 [7]: 37 nM
- Kb [7]: 9.3 nM
- Emax at 0.5 h (5-HT2B receptor [1]): < 12%
- Ki [3]: 0.97 nM

SMILES: C=CCN1C[C@H](C(=O)N(CCCN(C)C)C(=O)NCC)C[C@@H]2c3cccc4[nH]cc(c34)C[C@H]21 [CABERGOLINE]
- Emax at 0.5 h (5-HT2B receptor [1]): 103%
- EC50 [2]: 13 nM
- Ki [3]: 1.4 nM
